Data taken from US6784192B2, “Piperidine compound and pharmaceutical composition thereof” (Eisai Co., Ltd., priority 2000, dated 2004).
Counter-ions that a name gives are not always drawn.

Columns and labels:
[1] = system: atrial fibrillation (AF) in anesthetized thoracotomy dog; assay: Effect of termination and prevention of atrium fibrillation (AF) in anesthetized thoracotomy dog; assay type: in vivo; settings: samples with effect / samples tested
Source text: (1) An anesthetized thoracotomy dog was used for the present experiment. After opening brisket at a median line and cutting epicardium, bipolar electrodes for determination of a potential wave form were respectively stitched at the free walls of right and left atriums. Further, a wire electrode was inserted in the free wall of a right atrium to be fixed and used for electrical simulation. After cutting cervix at a median line, right and left vagal nerves were peeled. Wire electrodes for stimulating vagal nerves were inserted along the surface layers of the respective both sides to be fixed and used as stimulation for vagal nerves.
(2) Electrical stimulation was carried out under conditions: a stimulation duration of 0.1 mess; a x stimulation frequency of 20 Hz; and a stimulation intensity of 3 to 7 V. After 5 minutes of the start of the stimulation, high frequency stimulation (10 Hz, 1 sec) was applied to the right atrium, and the induction of atrial fibrillation (hereinafter, abbreviated as “AF”) was tried. The stimulation intensity of high frequency stimulation of the right atrium was carried out from 1.0 V, and when AF was not induced, induction was tried by increasing the stimulation intensity to 5.0 V. After AF was induced, observation for 30 minutes was carried out, it was confirmed that AF is kept (control experiment). Further, when AF induced was not kept for 30 minutes, the experiment was stopped.
(3) After confirming that AF was kept for 30 minutes or more in the control experiment, the stimulation of vagal nerve was intercepted, and the dog was rested for about one hour to be recovered. After that, similarly, AF was induced again. Further, the stimulation of vagal nerve at this time was carried out at the higher stimulation intensity by about 2 V than at the control experiment. After 5 minutes of the induction of AF, the administration of a tested substance was carried out. The tested substance was administered intravenously over 5 minutes. After completion of the administration, observation was carried out for 5 minutes, and when the termination of AF was not observed, the dose was increased and the observation was similarly carried out. When AF was stopped, the induction of AF was tried again just after termination. At this time, when AF which was continued for one minute or more was induced again, it was judged as no effect of prevention, and experiment was similarly carried out by increasing the dose.
In the Table, the number of the denominator indicates the number of the sample used for test, and the number of the numerator indicates the number of the sample in which the effect was confirmed.

[2] = system: atrial muscle of anesthetized thoracotomy dog; assay: Effective refractory period (ERP) in anesthetized thoracotomy dog; assay type: in vivo; settings: for Measurement Value of ERP: mean
Source text: (1) An anesthetized thoracotomy dog was used for the present experiment. After opening brisket at a median line and cutting epicardium, bipolar electrodes for determination of a potential wave form were respectively stitched at the free walls of right and left atriums. Further, a wire electrode was inserted in the free wall of a right atrium to be fixed and used for electrical simulation.
(2) A program electrical stimulation equipment was connected with the electrode for electrical stimulation at the right atrium, the electrical stimulation was carried out at a stimulation periodical length of 500 mess, and a threshold for the electrical stimulation was measured. The electrical stimulation intensity for the experiments below was set to carry out stimulation at 3-fold of this threshold. However, when the threshold was 0.7 V or less, the electrical stimulation was carried out at 2.0 V. Effective refractory period (ERP) provided early premature stimulation (S2) after the basic stimulation (S1) of 10 times, and the longest linking period in which atrium potential was not generated by the premature stimulation was referred to as ERP, while shortening the linking period (S1-S2) by 5 mess. Similar experiments were also carried out for the respective basic stimulation length (BCL) of 400, 300, 250 and 200 mess (control experiment: 1 series). After carrying out 2 times or more of the control experiments and confirming that ERP was stable, the tested substance was subsequently administered, and similar measurement was carried out. After the tested substance was administered once intravenously for 5 minutes, its keeping dose was subsequently administered intravenously. After 10 minutes of the administration start of the keeping dose, ERP was measured in the respective stimulation frequency. After completion of the one series of measurements, the concentration of the tested substance was increased and the similar experiments were repeated. The ERP and conduction time in the atrium in the respective stimulation frequency were compared with various indices under control condition. The result is shown by mean.

[3] = system: spontaneous nerve discharge of cut left saphenous nerve; assay: Suppression of spontaneous nerve discharge (ectopic firing); assay type: in vivo; settings: Test Example 5; rat, intravenous catheter, urethane anesthetized; read-out: Ectopic Firing (ID50 mg/kg)
Protocol: In order to assess the suppression action for spontaneous nerve discharge, the experiment was carried out by a method below, referring to “Burchiel, K J., Exp. Nuerol., 102, 249-253 (1988)”. Namely, for the rat in which spontaneous discharge was observed, the left saphenous nerve was cut off nearby knee articulatio before 1 week or more, and around 3 mm of the nerve was cut off so that the nerve was not adhered again. The left saphenous nerve was exposed under urethane (1 g/kg body weight) anesthetized, and about 1 cm of adjacent portion from the cut portion was peeled from a periphery tissue. Further, a catheter was preliminarily inserted in the vein of a right neck for administration of a compound. The peeled nerve was mounted on a platinum hook electrode, and liquid paraffin was put on it so that the nerve was not dried. The electrode was connected with a fine electrode amplifier, and the value was recorded on a computer through an AD/converter from an oscilloscope. The nerve discharge recorded was assessed by the number of ignition per 10 seconds using an analysis soft (AcqKnowledge).

[4] = system: rabbit atrial muscle; assay: Assessment for rabbit atrial muscle, Vmax; settings: Oryctolagus cuniculus, 0.25 h; Test Example 4; right atrial muscle, stimulation frequency 4 Hz, 15 minutes
Protocol: The specimen of the right atrial muscle which was enucleated from rabbit was used for the present experiment. The electrical stimulation was applied for the right atrial muscle which was enucleated, under conditions: a stimulation duration of 1 mess; a stimulation frequency of 4 Hz; and a stimulation intensity of about 1.2-fold of the threshold. The stimulation was provided from 30 minutes to 60 minutes before start of the experiment, and the condition of the specimen was stabilized. The action potential was recorded according to a glass microelectrode method. 3 M KCl was charged in the glass electrode, inserted in the specimen of the right atrium, and the action potential was recorded. Vmax is the parameter of the maximum upstroke slope of the action potential recorded, and a value which was automatically calculated by an action potential analysis soft (CAPA 1.23 manufactured by Physiotec. Co., Ltd.) was used. After the action potential in a normal Tyrode solution was recorded as control, the action potential after flowing the tested substances at respective concentrations for 15 minutes was recorded. The action of the tested substance for Vmax was calculated as an IC50 value.

[5] = system: sodium channel of synaptosome of rat cerebral cortex; assay: Assessment for sodium channel of synaptosome of rat cerebral cortex (SBFI); assay type: cell-based; settings: read-out: SBFI (IC50 μM); Test Example 3; Veratridine 20 μM; 2 μM TTX as 100%
Protocol: In the present experiment the synaptosome which was extracted from rat cerebral cortex was used. After sodium ion-sensitive dye, SBFI was taken in, the synaptosome was reacted with the respective tested substances (3 samples in 6 concentrations) at room temperature for 15 minutes in a 96 wells plate. The sodium channel inhibitory activity was measured using FDSS2000 of HAMAMATSU Photonics Co., Ltd. The sodium ion concentration in the synaptosome was measured once per 5 seconds using the fluorescent intensity of SBFI as an index. After measuring the control value 10 times, Veratridine was added so that the final concentration was 20 μM, and further measurement was carried out 30times. The inhibitory activity value of the tested substances for sodium channel was calculated, setting the action only by a measurement solution without the tested substance, as 0%, and the inhibitory activity caused by 2 μM of TTX which was a positive control, as 100%, as an inhibitory activity value corresponding to this action, using the increase of the fluorescent intensity of SBFI to the control value which was generated after addition of Veratridine, as an index.

With `CS(=O)(=O)c1ccsc1CCC1CCN(Cc2ccc[nH]c2=O)CC1` [Example 135, 1-[(2-Oxo-1,2-dihydro-3-pyridinyl)methyl]-4-[2-(3-methylsulfonyl-2-thienyl)ethyl]piperidine] the the termination effect ([1]; dose 0.3 mg/kg intravenously over 5 minutes) was 1/3, the the prevention effect ([1]; dose 0.3 mg/kg intravenously) was 1/1 and the the termination effect ([1]; dose 1 mg/kg intravenously over 5 minutes) was 2/2. The the prevention effect ([1]; dose 1 mg/kg intravenously) was 2/2, the “Measurement Value of ERP” value ([2]; dose 0.1 mg/kg intravenously, BCL 200 msec) was 125.0 ms and the “Measurement Value of ERP” value ([2]; dose 0.1 mg/kg intravenously, BCL 250 msec) was 138.3 ms. For the same molecule, the “Measurement Value of ERP” value ([2]; dose 0.1 mg/kg intravenously, BCL 300 msec) was 155.0 ms, the “Measurement Value of ERP” value ([2]; dose 0.1 mg/kg intravenously, BCL 400 msec) was 170.0 ms and the “Measurement Value of ERP” value ([2]; dose 0.1 mg/kg intravenously, BCL 500 msec) was 178.3 ms. The “Percent change in ERP versus pre-dose control” value (from here on “Percent change”) ([2]; dose 0.1 mg/kg, BCL 200 msec) was 7.1%, the “Percent change” value ([2]; dose 0.1 mg/kg, BCL 250 msec) was 3.9% and the “Percent change” value ([2]; dose 0.1 mg/kg, BCL 300 msec) was 5.7%. The “Percent change” value ([2]; dose 0.1 mg/kg, BCL 400 msec) was 3.0%, the “Percent change” value ([2]; dose 0.1 mg/kg, BCL 500 msec) was 3.1% and the “Measurement Value of ERP” value ([2]; dose 0.3 mg/kg intravenously, BCL 200 msec) was 138.3 ms. The “Measurement Value of ERP” value ([2]; dose 0.3 mg/kg intravenously, BCL 250 msec) was 150.0 ms, the “Measurement Value of ERP” value ([2]; dose 0.3 mg/kg intravenously, BCL 300 msec) was 166.7 ms and the “Measurement Value of ERP” value ([2]; dose 0.3 mg/kg intravenously, BCL 400 msec) was 181.7 ms. For the same molecule, the “Measurement Value of ERP” value ([2]; dose 0.3 mg/kg intravenously, BCL 500 msec) was 190.0 ms, the “Percent change” value ([2]; dose 0.3 mg/kg, BCL 200 msec) was 18.6% and the “Percent change” value ([2]; dose 0.3 mg/kg, BCL 250 msec) was 12.6%. The “Percent change” value ([2]; dose 0.3 mg/kg, BCL 300 msec) was 13.7%, the “Percent change” value ([2]; dose 0.3 mg/kg, BCL 400 msec) was 10.1% and the “Percent change” value ([2]; dose 0.3 mg/kg, BCL 500 msec) was 9.8%. For the same molecule, the “Measurement Value of ERP” value ([2]; dose 1 mg/kg intravenously, BCL 250 msec) was 183.3 ms, the “Measurement Value of ERP” value ([2]; dose 1 mg/kg intravenously, BCL 300 msec) was 195.0 ms and the “Measurement Value of ERP” value ([2]; dose 1 mg/kg intravenously, BCL 400 msec) was 203.3 ms. The “Measurement Value of ERP” value ([2]; dose 1 mg/kg intravenously, BCL 500 msec) was 208.3 ms, the “Percent change” value ([2]; dose 1 mg/kg, BCL 250 msec) was 37.9% and the “Percent change” value ([2]; dose 1 mg/kg, BCL 300 msec) was 33.2%. For the same molecule, the “Percent change” value ([2]; dose 1 mg/kg, BCL 400 msec) was 23.4% and the “Percent change” value ([2]; dose 1 mg/kg, BCL 500 msec) was 20.6%.

`O=c1[nH]c2ccccc2cc1CN1CCC(CCc2cccc(-c3ccccc3)c2)CC1` [Example 381, 1-[(2-Oxo-1,2-dihydro-3-quinolinyl)methyl]-4-[2-(3-(phenylphenyl)ethyl]piperidine oxalate] showed an ED50 [3] of 0.56 mg/kg, an IC50 [4] of 100 µM and an IC50 [5] of 3 µM.
